Reference: patent US11136324B2, “Substituted imidazoles as apoptosis signal regulating kinase 1 inhibitors” (Jiangsu Hansoh Pharmaceutical Group Co., Ltd., priority 2017, dated 2021)

Legend:
[1] = Pharmacokinetic (PK) assay in mice; format: in vivo; conditions: Balb/c male mice, single intragastric administration, 5 mg/kg, plasma; for AUC(0-t) / AUC(0-inf) / half-life / MRT / Cmax: mouse, po; for AUC(0-t): read-out: Area under curve AUC0-t; for AUC(0-inf): read-out: Area under curve AUC0-∞; for half-life: read-out: Half-life t1/2 (converted); for MRT: read-out: Mean residence time MRT; for Cmax: read-out: Plasma concentration Cmax
Description: 2. Pharmacokinetic (PK) Assay in Mice
The pharmacokinetic test of the preferred examples of the present invention in mice was carried out in Balb/c male mice (Shanghai Jiesijie Laboratory Animal Co., LTD).
Administration mode: single intragastric administration.
Administration dosage: 5 mg/10 ml/kg.
Formulation: 0.5% CMC-Na, ultrasonic dissolution.
Sampling points: 0.5, 1, 2, 4, 6, 8 and 24 hours after administration.
1) 0.1 mL of blood was taken from the orbit, placed in a K2EDTA tube, and centrifuged for 5˜20 min at room temperature at 1000˜3000×g to separate the plasma, which was then stored at −80° C.
2) 160 μL of acetonitrile was added to 40 μL of plasma sample for precipitation, and then the mixture was centrifuged for 5˜20 minutes at 500˜2000×g.
3) 100 μL, of processed supernatant was taken and analyzed by LC/MS/MS assay to determine the concentration of the test compound.
LC-MS/MS Assay: • Liquid chromatography condition: Shimadzu LC-20AD pump • Mass spectrometry condition: AB Sciex API 4000 mass spectrometer • Chromatographic column: phenomenex Gemiu 5 μm C18 50×4.6 mm • Mobile phase: solution A was 0.1% aqueous formic acid solution, and solution B was acetonitrile • Flow rate: 0.8 mL/min • Elution time: 0-3.5 minutes gradient elution
The main parameters were calculated using WinNonlin 6.1.

[2] = molecular target: ASK1 kinase (Homo sapiens (Human), UniProt Q99683); assay: ASK1 enzymatic test (TR-FRET); format: biochemical; conditions: ASK1 kinase activity
ASK1 kinase, sequence (Q99683 whole entry): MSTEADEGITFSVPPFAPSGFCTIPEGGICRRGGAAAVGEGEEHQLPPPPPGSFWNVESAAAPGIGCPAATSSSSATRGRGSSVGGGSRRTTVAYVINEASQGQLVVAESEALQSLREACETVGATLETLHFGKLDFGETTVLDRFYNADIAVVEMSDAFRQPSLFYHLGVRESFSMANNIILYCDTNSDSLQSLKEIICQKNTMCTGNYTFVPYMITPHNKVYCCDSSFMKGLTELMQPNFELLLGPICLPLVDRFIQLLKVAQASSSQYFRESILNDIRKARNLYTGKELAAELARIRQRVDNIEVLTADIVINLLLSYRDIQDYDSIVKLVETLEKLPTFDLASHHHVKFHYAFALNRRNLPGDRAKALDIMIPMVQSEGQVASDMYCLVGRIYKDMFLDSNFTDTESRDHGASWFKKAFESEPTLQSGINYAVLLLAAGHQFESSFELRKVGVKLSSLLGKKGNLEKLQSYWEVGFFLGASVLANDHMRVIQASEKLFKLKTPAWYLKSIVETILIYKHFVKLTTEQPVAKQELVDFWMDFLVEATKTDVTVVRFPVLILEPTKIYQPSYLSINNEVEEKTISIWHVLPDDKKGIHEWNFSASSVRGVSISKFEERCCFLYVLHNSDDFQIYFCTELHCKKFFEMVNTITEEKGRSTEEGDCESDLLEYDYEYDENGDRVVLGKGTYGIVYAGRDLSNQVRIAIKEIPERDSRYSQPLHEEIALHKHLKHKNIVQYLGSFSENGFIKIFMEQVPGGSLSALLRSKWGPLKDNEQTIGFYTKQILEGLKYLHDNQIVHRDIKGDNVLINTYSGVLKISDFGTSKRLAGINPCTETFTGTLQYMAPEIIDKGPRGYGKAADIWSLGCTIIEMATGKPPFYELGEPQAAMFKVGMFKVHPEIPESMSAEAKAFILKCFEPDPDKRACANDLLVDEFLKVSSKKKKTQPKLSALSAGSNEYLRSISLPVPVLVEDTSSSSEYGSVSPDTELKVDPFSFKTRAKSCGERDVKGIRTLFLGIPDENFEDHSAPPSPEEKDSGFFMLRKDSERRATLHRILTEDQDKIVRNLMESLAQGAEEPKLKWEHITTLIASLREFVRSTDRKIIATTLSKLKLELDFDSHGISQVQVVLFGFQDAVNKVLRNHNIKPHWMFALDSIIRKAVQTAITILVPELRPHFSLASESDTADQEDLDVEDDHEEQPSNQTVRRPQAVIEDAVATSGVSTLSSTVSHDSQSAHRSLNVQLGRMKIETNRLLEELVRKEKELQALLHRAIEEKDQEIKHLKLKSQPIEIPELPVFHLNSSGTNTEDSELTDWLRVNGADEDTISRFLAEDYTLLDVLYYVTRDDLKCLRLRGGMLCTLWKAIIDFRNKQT
Description: In this test, the fluorescence-resonance energy transfer (TR-FRET) method was used to determine the inhibition effect of the test compounds on ASK1 kinase activity, and the half maximal inhibitory concentration IC50 of the compounds on ASK1 kinase activity was obtained.
1) 1˜5 μL of ASK1 enzyme solution was added to a 384-well plate, and the final concentration of the enzyme was 0.220 nM.
2) 1˜5 μL of gradient-diluted compound solution was added.
3) 1˜5 μL of a substrate mixture containing substrate polypeptides (final concentration: 100˜5000 nM) and ATP (final concentration: 100˜1000 uM) were added.
4) The mixture was incubated at room temperature for 0.5 to 5 hours.
5) 10 μL of EDTA and test solution containing labeled antibody were added, and the plate was incubated at room temperature for 2 to 24 hours.
6) The fluorescence signal value of each well was determined by a microplate reader at about 615 nm and 665 nm.
7) The inhibition rate was calculated by the fluorescence signal value.
8) The IC50 of the compound was obtained by curve fitting according to the inhibition rate at different concentrations.

SMILES | Peak time tmax [1] [h] | AUC(0-t) [1] [ng·h/mL] | AUC(0-inf) [1] [ng·h/mL] | half-life [1] [h] | MRT [1] [h] | Cmax [1] [ng/mL] | IC50 [2] [nM]
Cc1cc(F)c(C(=O)Nc2cccc(-c3nnc4n3[C@H](C)CC4)n2)cc1-n1cnc(C2CC2)c1 [Example 8, (R)-5-(4-Cyclopropyl-1H-imidazol-1-yl)-2-fluoro-4-methyl-N-(6-(5-methyl-6,7-dihydro-5H-pyrrolo[2,1-c][1,2,4]triazol-3-yl)pyridin-2-yl)benzamide] | 1 | 29700 | 29800 | 2.7 | 4.6 | 4810 | 1.8
Cc1cc(F)c(C(=O)Nc2cccc(-c3nnc4n3[C@@H](C)CC4)n2)cc1-n1cnc(C(C)(C)C)c1 [Example 16, (S)-5-(4-(tert-Butyl)-1H-imidazol-1-yl)-2-fluoro-4-methyl-N-(6-(5-methyl-6,7-dihydro-5H-pyrrolo[2,1-c][1,2,4]triazol-3-yl)pyridin-2-yl)benzamide] | 1 | 13600 | 13900 | 1.4 | 2 | 6580 | 4.1
Cc1cc(F)c(C(=O)Nc2cccc(-c3nnc4n3[C@H](C)CC4)n2)cc1-n1cnc(C(C)C)c1 [Example 13, (R)-2-Fluoro-5-(4-isopropyl-1H-imidazol-1-yl)-4-methyl-N-(6-(5-methyl-6,7-dihydro-5H-pyrrolo[2,1-c][1,2,4]triazol-3-yl)pyridin-2-yl)benzamide] | 1 | 11700 | 11800 | 1 | 2 | 5060 | 2.7
Cc1cc(F)c(C(=O)Nc2cccc(-c3nnc4n3CC(C)(C)C4)n2)cc1-n1cnc(C2CC2)c1 [Example 32, 5-(4-Cyclopropyl-1H-imidazol-1-yl)-N-(6-(6,6-dimethyl-6,7-dihydro-5H-pyrrolo[2,1-c][1,2,4]triazol-3-yl)pyridin-2-yl)-2-fluoro-4-methylbenzamide] | 1 | 46400 | 46400 | 2.6 | 3.9 | 10900 | 4.9
Cc1cc(F)c(C(=O)Nc2cccc(-c3nnc4n3CCC4)n2)cc1-n1cnc(C2CC2)c1 [Example 1, 5-(4-cyclopropyl-1H-imidazol-1-yl)-N-(6-(6,7-dihydro-5H-pyrrolo[2,1-c][1,2,4]triazol-3-yl)pyridin-2-yl)-2-fluoro-4-methylbenzamide] | 0.5 | 104000 | 104000 | 2.9 | 4.2 | 18300 | 6
CC[C@H]1CCc2nnc(-c3cccc(NC(=O)c4cc(-n5cnc(C6CC6)c5)c(C)cc4F)n3)n21 [Example 56, (S)-5-(4-Cyclopropyl-1H-imidazol-1-yl)-N-(6-(5-ethyl-6,7-dihydro-5H-pyrrolo[2,1-c][1,2,4]triazol-3-yl)pyridin-2-yl)-2-fluoro-4-methylbenzamide] | 1 | 38600 | 42500 | 2.4 | 3.6 | 9940 | 5
Cc1cc(F)c(C(=O)Nc2cccc(-c3nnc4n3C(C(F)(F)F)CC4)n2)cc1-n1cnc(C2CC2)c1 (stereo not drawn) [Example 41, 5-(4-Cyclopropyl-1H-imidazol-1-yl)-2-fluoro-4-methyl-N-(6-(5-(trifluoromethyl)-6,7-di hydro-5H-pyrrolo[2,1-c][1,2,4]triazol-3-yl)pyridin-2-yl)benzamide] | 1 | 83900 | 83900 | 2 | 4 | 17100 | 7.7
Cc1cc(F)c(C(=O)Nc2cccc(-c3nnc4n3[C@@H](C)CC4)n2)cc1-n1cnc(C2CC2)c1 [Example 9, (S)-5-(4-Cyclopropyl-1H-imidazol-1-yl)-2-fluoro-4-methyl-N-(6-(5-methyl-6,7-dihydro-5H-pyrrolo[2,1-c][1,2,4]triazol-3-yl)pyridin-2-yl)benzamide] | 0.5 | 38100 | 38400 | 4.4 | 5.5 | 4370 | 5
CCC[C@H]1CCc2nnc(-c3cccc(NC(=O)c4cc(-n5cnc(C6CC6)c5)c(C)cc4F)n3)n21 [Example 60, (S)-5-(4-Cyclopropyl-1H-imidazol-1-yl)-2-fluoro-4-methyl-N-(6-(5-propyl-6,7-dihydro-5H-pyrrolo[2,1-c][1,2,4]triazol-3-yl)pyridin-2-yl)benzamide] | 1 | 29000 | 29900 | 1.3 | 2.6 | 9180 | 6.6
Cc1cc(F)c(C(=O)Nc2cccc(-c3nnc4n3[C@H](CF)CC4)n2)cc1-n1cnc(C2CC2)c1 [Example 51, (S)-5-(4-Cyclopropyl-1H-imidazol-1-yl)-2-fluoro-N-(6-(5-(fluoromethyl)-6,7-dihydro-5H-pyrrolo[2,1-c][1,2,4]triazol-3-yl)pyridin-2-yl)-4-methylbenzamide] | 1 | 57200 | 57700 | 3.5 | 5.8 | 5890 | 4.9
Cc1cc(F)c(C(=O)Nc2cccc(-c3nnc4n3CC(C)C4)n2)cc1-n1cnc(C2CC2)c1 (stereo not drawn) [Example 33, 5-(4-Cyclopropyl-1H-imidazol-1-yl)-2-fluoro-4-methyl-N-(6-(6-methyl-6,7-dihydro-5H-pyrrolo[2,1-c][1,2,4]triazol-3-yl)pyridin-2-yl)benzamide] | 0.5 | 47900 | 48600 | 4.7 | 5.9 | 5170 | 7.2
Cc1cc(F)c(C(=O)Nc2cccc(-c3nnc4n3[C@@H](C)CC4)n2)cc1-n1cnc(C(C)C)c1 [Example 14, (S)-2-Fluoro-5-(4-isopropyl-1H-imidazol-1-yl)-4-methyl-N-(6-(5-methyl-6,7-dihydro-5H-pyrrolo[2,1-c][1,2,4]triazol-3-yl)pyridin-2-yl)benzamide] | 1 | 21000 | 21000 | 1.3 | 2.8 | 6150 | 9
